Laboratory results taken from patent US10912820B2, “Use of immunomodulatory kits for immunotherapeutic treatment of patients with myeloid leukemias” (Modiblast Pharma GmbH, priority 2014, dated 2021).

Assay: In vivo treatment of healthy PVG.1N rats with single substances (safety data)
Conditions: i.v.; for (severe) side effects (breathing, sleep, food intake, mobility, skin, weight): Picibanil 0.35 μg/rat, PGE2 1 μg/rat, PGE1 1 μg/rat; for Flow cytometric analyzes on blood cells (Teff, Treg, CD4, CD8, NK, NKT cells) compared to placebo: data not shown
Protocol: Safety data were performed on a total of 4 rats of the healthy strain PVG.1N: they were given the clinically intended final concentrations of the single substances i.v. in the following doses: Picibanil (0.35 μg/rat), PGE2 (1 μg/rat), PGE1 (1 μg/rat) and placebo (PBS).

Structure (SMILES)	(severe) side effects (breathing, sleep, food intake, mobility, skin, weight)	Flow cytometric analyzes on blood cells (Teff, Treg, CD4, CD8, NK, NKT cells) compared to placebo
CCCCC[C@H](O)/C=C/[C@H]1[C@H](O)CC(=O)[C@@H]1CCCCCCC(=O)O [PGE1, Alprostadil]	no (severe) side effects	no difference compared to the placebo controls
CCCCC[C@H](O)/C=C/[C@H]1[C@H](O)CC(=O)[C@@H]1C/C=C\CCCC(=O)O [PGE2, Prostaglandin E2]	no (severe) side effects	no difference compared to the placebo controls
